Assay results from PMC3747263 (PLoS ONE, 2013).

Tests used:
LecB (PA-IIL) = LecB (PA-IIL) (Pseudomonas aeruginosa, UniProt Q9HYN5); format: binding; conditions: read-out: LecB / KD
BambL = target: T1, BambL (Burkholderia ambifaria, UniProt Q0B4G1); assay: X-ray crystal structure of complex, […] Å; format: binding; conditions: co-crystallised with 5 mM sugar; intra- and intermonomeric sites; reservoir pH 5.0
T1 construct: gene Bamb_5415
T1 sequence (Q0B4G1 1-87 limits assumed): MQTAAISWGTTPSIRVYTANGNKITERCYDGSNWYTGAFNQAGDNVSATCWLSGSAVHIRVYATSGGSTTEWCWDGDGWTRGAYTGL

Chain of LecB (PA-IIL) (Q9HYN5 2-115 limits assumed): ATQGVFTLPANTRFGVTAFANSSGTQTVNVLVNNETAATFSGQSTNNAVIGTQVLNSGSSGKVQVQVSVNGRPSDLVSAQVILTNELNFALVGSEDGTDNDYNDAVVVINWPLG

Structure (SMILES) | Kd (LecB (PA-IIL)) [nM] | X-ray crystal structure of complex, 1.6 Å (BambL)
CC(=O)N[C@H]1[C@@H](O[C@H]2[C@@H](O)[C@@H](CO)OC(O)[C@@H]2O[C@@H]2O[C@@H](C)[C@@H](O)[C@@H](O)[C@@H]2O)O[C@H](CO)[C@H](O)[C@@H]1O (some centres unmarked) [A tri] | 10300 | –
CC(=O)N[C@H]1C(O)O[C@H](CO)[C@@H](O)[C@@H]1O[C@@H]1O[C@H](CO)[C@H](O)[C@H](O)[C@H]1O[C@@H]1O[C@@H](C)[C@@H](O)[C@@H](O)[C@@H]1O (some centres unmarked) [H type 1] | 1390 | –
CC(=O)N[C@H]1C(O)O[C@H](CO)[C@@H](O[C@@H]2O[C@H](CO)[C@H](O)[C@H](O)[C@H]2O[C@@H]2O[C@@H](C)[C@@H](O)[C@@H](O)[C@@H]2O)[C@@H]1O (some centres unmarked) [H type 2] | 480 | –
CC(=O)N[C@H]1[C@H](O[C@H]2[C@@H](O)[C@@H](CO)OC(O)[C@@H]2O)O[C@H](CO)[C@@H](O[C@@H]2O[C@H](CO)[C@H](O)[C@H](O)[C@H]2O)[C@@H]1O[C@@H]1O[C@@H](C)[C@@H](O)[C@@H](O)[C@@H]1O (some centres unmarked) [Le^x tetrasaccharide] | – | BambL was cocrystallised with the Le^x tetrasaccharide
CC(=O)N[C@H]1[C@H]([C@H](O)[C@H](O)CO)O[C@@](O[C@H]2[C@@H](O)[C@@H](CO)O[C@@H](O[C@H]3[C@H](O[C@@H]4O[C@@H](C)[C@@H](O)[C@@H](O)[C@@H]4O)[C@@H](CO)OC(O)[C@@H]3NC(C)=O)[C@@H]2O)(C(=O)O)C[C@@H]1O (some centres unmarked) [sLe^a] | 290 | –
